9 compounds from US20240269298A1, “PHOSPHONYL DERIVATIVE, AND COMPOSITION AND PHARMACEUTICAL APPLICATION THEREOF” (XIZANG HAISCO PHARMACEUTICAL CO., LTD., priority 2021, published 2024) can be followed below.

Where two headings read alike, the source gives them in different places. Where only a bound is given, the exact number is not on record here.

In data set [1] the test system is NCI-H1975 EGFR-L858R-T790M-C797S cells. Kind of data set: Inhibitory activity on proliferation of NCI-H1975 EGFR-L858R-T790M-C797S cells (CellTiter-Glo, 72 h). The settings on record: Homo sapiens. The format is cell-based. As for the experimental part: NCI-H1975 EGFR-L858R-T790M-C797S cells were cultured in an incubator at 37° C. with 5% CO2, and the culture medium was RPMI1640+10% FBS+100 μg/mL hygromycin. The cells in the logarithmic phase were collected, and the cell suspension was adjusted to an appropriate concentration with a hygromycin-free culture medium, and then plated on a 96-well plate at a density of 1500 cells/well and a volume of 90 μL. 10 μL of the compounds at different concentrations were added, and a vehicle control group (cells plus DMSO) was provided, wherein the concentration of DMSO was 0.1%. The cell culture plate was cultured in an incubator at 37° C. with 5% CO2 for 72 hours. After the incubation was completed, according to operation instructions for a CellTiter-Glo kit (Promega, G7572), 50 μL of CTG solution, which was already pre-melted and equilibrated to room temperature, was added to each well, and the mixtures were uniformly mixed for 2 min using a microplate shaker. The plate was placed at room temperature for 10 min, and then […] signal values were measured using a microplate reader (Envision 2104). […] was processed based on formula (2), and using the GraphPad Prism 5.0 software and nonlinear regression model, S-shaped dose-survival curves were plotted, and IC50 values were calculated. wherein Vsample was the readout of the drug-treated group, and Vvehicle control was the readout of the control group.

Another data set has as its system A431 (EGFR-WT) cells. Kind of data set: Inhibitory activity on proliferation of A431 (EGFR-WT) cells (CTG, 72 h). The settings on record: Homo sapiens, A-431. The format is cell-based. The procedure, abridged:
(§1)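 Cells plated at 1000/well (NCI-H1975, RPMI1640+10% FBS) or 3000/well (A431, DMEM+10% FBS), dosed next day with compounds (0.1% DMSO final) for 72 h at 37 °C, 5% CO2. Viability by CTG luminescence, normalised to vehicle control; IC50 from nonlinear-regression dose-survival curves.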

The test system of data set [2] is NCI-H1975 (EGFR-L858R-T790M) cells. Put plainly: Inhibitory activity on proliferation of NCI-H1975 (EGFR-L858R-T790M) cells (CTG, 72 h). Format: cell-based. The note with it: Homo sapiens. In outline: as §1
Data set [3] is described as follows: Pharmacokinetic test in mice. The format is in vivo. The settings on record: male, ICR, mouse, po, administration i.g. (10 mg/kg), plasma. In outline:
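Male ICR mice (20-25 g), fasted 12-14 h before dosing and fed 4 h after, received a single intravenous or intragastric dose. Orbital plasma sampled from 0 to 24 h (5 min-24 h points); LC-MS/MS quantitation for PK parameters and bioavailability.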

Setting [4] is: read-out: IC50 (value in brackets).

`COc1cc(N2CCC(N3CCN(CC4CCN(c5ccc6c(c5)C(=O)N(C5CCC(=O)NC5=O)C6=O)CC4)CC3)CC2)c(-c2cnn(C)c2)cc1Nc1ncc(Br)c(Nc2ccc3nccnc3c2P(C)(C)=O)n1` (stereo not drawn) [Compound 18, 5-(4-((4-(1-(4-((5-bromo-4-((5-(dimethylphosphoryl)quinoxalin-6-yl)amino)pyrimidin-2-yl)amino)-5-methoxy-2-(1-methyl-1H-pyrazol-4-yl)phenyl)piperidin-4-yl)piperazin-1-yl)methyl)piperidin-1-yl)-2-(2,6-dioxopiperidin-3-yl)isoindoline-1,3-dione]: the IC50 in data set [1] (read-out: IC50 (class symbol)) was less than 200 nM; in data set [1] (read-out: IC50 (value)), 24 nM; with A431 (EGFR-WT) cells, no less than 10000 nM; in data set [2] (read-out: IC50 (class symbol)) it was less than 100 nM; in data set [2] (setting [4]) it was 12 nM.

Compound `COc1cc(N2CCC(CN3CCN(c4ccc5c(c4)C(=O)N(C4CCC(=O)NC4=O)C5=O)CC3)CC2)c(-c2cnn(C)c2)cc1Nc1ncc(Br)c(Nc2ccc(-c3ccccc3)cc2P(C)(C)=O)n1` (stereo not drawn) [Compound 45, 5-(4-((1-(4-((5-bromo-4-((3-(dimethylphosphoryl)-[1,1′-biphenyl]-4-yl)amino)pyrimidin-2-yl)amino)-5-methoxy-2-(1-methyl-1H-pyrazol-4-yl)phenyl)piperidin-4-yl)methyl)piperazin-1-yl)-2-(2,6-dioxopiperidin-3-yl)isoindoline-1,3-dione] registered an AUC(0-t) in data set [3] of 59200 ng·h/mL. The IC50 is 200 to 500 nM in data set [1] (read-out: IC50 (class symbol)); 364 nM in data set [1] (read-out: IC50 (value)); no less than 10000 nM with A431 (EGFR-WT) cells; 100 to 500 nM in data set [2] (read-out: IC50 (class symbol)); 105 nM in data set [2] (setting [4]).

`COc1cc(N2CCC(CN3CCC4(CC3)CCN(c3cc5c(cc3F)C(=O)N(C3CCC(=O)NC3=O)C5=O)CC4)CC2)c(-c2cnn(C)c2)cc1Nc1ncc(Br)c(Nc2ccc(-c3ccccc3)cc2P(C)(C)=O)n1` (stereo not drawn) [Compound 47, 5-(9-((1-(4-((5-bromo-4-((3-(dimethylphosphoryl)-[1,1′-biphenyl]-4-yl)amino)pyrimidin-2-yl)amino)-5-methoxy-2-(1-methyl-1H-pyrazol-4-yl)phenyl)piperidin-4-yl)methyl)-3,9-diazaspiro[5.5]undecan-3-yl)-2-(2,6-dioxopiperidin-3-yl)-6-fluoroisoindoline-1,3-dione]: in data set [3], the AUC(0-t) amounted to 30600 ng·h/mL. In addition, the IC50 in data set [1] (read-out: IC50 (class symbol)) was less than 200 nM; in data set [1] (read-out: IC50 (value)), 72 nM; with A431 (EGFR-WT) cells, no less than 10000 nM; in data set [2] (read-out: IC50 (class symbol)), 100 to 500 nM; in data set [2] (setting [4]), 110 nM.

On to `COc1cc(N2CCC(N3CCN(C4CC5(CCN(c6ccc7c(c6)C(=O)N(C6CCC(=O)NC6=O)C7=O)CC5)C4)CC3)CC2)c(-c2cnn(C)c2)cc1Nc1ncc(Cl)c(Nc2ccc3nccnc3c2P(C)(C)=O)n1` (stereo not drawn) [Trifluoroacetate of compound 7, 5-(2-(4-(1-(4-((5-chloro-4-((5-(dimethylphosphoryl)quinoxalin-6-yl)amino)pyrimidin-2-yl)amino)-5-methoxy-2-(1-methyl-1H-pyrazol-4-yl)phenyl)piperidin-4-yl)piperazin-1-yl)-7-azaspiro[3.5]nonan-7-yl)-2-(2,6-dioxopiperidin-3-yl)isoindoline-1,3-dione], for which the IC50 in data set [1] (read-out: IC50 (class symbol)) is less than 200 nM; in data set [1] (read-out: IC50 (value)), 30 nM; in the data set on A431 (EGFR-WT) cells it was no less than 10000 nM; in data set [2] (read-out: IC50 (class symbol)), less than 100 nM; in data set [2] (setting [4]) it was 20 nM.

With `COc1cc(N2CCC(N3CCN(CCOCC#Cc4cccc5c4CN(C4CCC(=O)NC4=O)C5=O)CC3)CC2)ccc1Nc1ncc(Cl)c(Nc2ccccc2P(C)(C)=O)n1` (stereo not drawn) [Control compound A, reference compound], the exposure (AUC) in data set [3] worked out at 563 ng·h/mL. Moreover, the half-life in data set [3] is 1.54 h. For the same compound, the values for the IC50 in data set [1] (read-out: IC50 (value)), in data set [2] (read-out: IC50 (class symbol)) and in data set [2] (setting [4]) were 1380 nM, 100 to 500 nM and 549 nM, respectively.

In data set [3], `COc1cc(N2CCC(CN3CCN(c4ccc5c(c4)C(=O)N(C4CCC(=O)NC4=O)C5=O)CC3)CC2)c(-c2cnn(C)c2)cc1Nc1ncc(Br)c(Nc2ccc(-c3ccccc3F)cc2P(C)(C)=O)n1` (stereo not drawn) [Compound 101, 5-(4-((1-(4-((5-bromo-4-((3-(dimethylphosphoryl)-2′-fluoro-[1,1′-biphenyl]-4-yl)amino)pyrimidin-2-yl)amino)-5-methoxy-2-(1-methyl-1H-pyrazol-4-yl)phenyl)piperidin-4-yl)methyl)piperazin-1-yl)-2-(2,6-dioxopiperidin-3-yl)isoindoline-1,3-dione] showed an AUC of 118000 ng·h/mL. The same compound gave a half-life in data set [3] of 12.7 h. In addition, the IC50 was less than 200 nM in data set [1] (read-out: IC50 (class symbol)); 152 nM in data set [1] (read-out: IC50 (value)); no less than 10000 nM in the data set with A431 (EGFR-WT) cells; 100 to 500 nM in data set [2] (read-out: IC50 (class symbol)); 107 nM in data set [2] (setting [4]).

`COc1cc(N2CCC(CN3CCN(c4ccc5c(c4)C(=O)N(C4CCC(=O)NC4=O)C5=O)CC3)CC2)c(-c2cnn(C)c2)cc1Nc1ncc(Cl)c(Nc2ccc(-c3ccccc3)cc2P(C)(C)=O)n1` (stereo not drawn) [Compound 65, 5-(4-((1-(4-((5-chloro-4-((3-(dimethylphosphoryl)-[1,1′-biphenyl]-4-yl)amino)pyrimidin-2-yl)amino)-5-methoxy-2-(1-methyl-1H-pyrazol-4-yl)phenyl)piperidin-4-yl)methyl)piperazin-1-yl)-2-(2,6-dioxopiperidin-3-yl)isoindoline-1,3-dione]: the AUC(0-t) in data set [3] worked out at 62300 ng·h/mL. Besides, the IC50 in data set [1] (read-out: IC50 (class symbol)) was less than 200 nM; in data set [1] (read-out: IC50 (value)), 136 nM; in the data set on A431 (EGFR-WT) cells, no less than 10000 nM; in data set [2] (read-out: IC50 (class symbol)), 100 to 500 nM; in data set [2] (setting [4]) it was 129 nM.

In the case of `COc1cc(N2CCC(N3CCN(CC4CCN(c5ccc6c(c5)C(=O)N(C5CCC(=O)NC5=O)C6=O)C4)CC3)CC2)c(-c2cnn(C)c2)cc1Nc1ncc(Cl)c(Nc2ccc3nccnc3c2P(C)(C)=O)n1` (stereo not drawn) [Compound 6, 5-(3-((4-(1-(4-((5-chloro-4-((5-(dimethylphosphoryl)quinoxalin-6-yl)amino)pyrimidin-2-yl)amino)-5-methoxy-2-(1-methyl-1H-pyrazol-4-yl)phenyl)piperidin-4-yl)piperazin-1-yl)methyl)pyrrolidin-1-yl)-2-(2,6-dioxopiperidin-3-yl)isoindoline-1,3-dione], the IC50 in data set [1] (read-out: IC50 (class symbol)) was less than 200 nM; in data set [1] (read-out: IC50 (value)) it was 27 nM; with A431 (EGFR-WT) cells, no less than 10000 nM; in data set [2] (read-out: IC50 (class symbol)) it was less than 100 nM; in data set [2] (setting [4]), 15 nM.

As to `COc1cc(N2CCC(N3CCN(C(=O)CNc4cccc5c4C(=O)N(C4CCC(=O)NC4=O)C5=O)CC3)CC2)ccc1Nc1ncc(Cl)c(Nc2ccccc2P(C)(C)=O)n1` (stereo not drawn) [Control compound B, reference compound], the AUC in data set [3] stood at 2090 ng·h/mL. The same compound gave a half-life in data set [3] of 1.23 h. Besides, the IC50 was 500 to 1000 nM in data set [1] (read-out: IC50 (class symbol)), 704 nM in data set [1] (read-out: IC50 (value)), 100 to 500 nM in data set [2] (read-out: IC50 (class symbol)) and 658 nM in data set [2] (setting [4]).
